From PubChem BioAssay (NCI)
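Each compound was tested at five concentrations against cells in 96-well plates for 48 hours. Definition used: TGI = concentration required for complete inhibition of growth.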

Key:
Assay in all cases: inhibition of tumour cell growth, NCI panel, 48 h
[1] = tested on: NCI-H460 lung
[2] = tested on: K-562 leukemia
[3] = tested on: HCT-116 colon
[4] = tested on: SF-539 CNS
[5] = tested on: UACC-62 melanoma
[6] = tested on: MDA-MB-435
[7] = tested on: SF-295 CNS
[8] = tested on: NCI/ADR-RES ovarian
[9] = tested on: CAKI-1 renal
[10] = tested on: SK-MEL-28 melanoma
[11] = tested on: HOP-92 NSCLC
[12] = tested on: IGROV1 ovarian
[13] = tested on: SK-MEL-2 melanoma
[14] = tested on: M14 melanoma
[15] = tested on: CCRF-CEM leukemia
[16] = tested on: SNB-19 CNS
[17] = tested on: OVCAR-3 ovarian
[18] = tested on: OVCAR-8 ovarian
[19] = tested on: HT29 colon
[20] = tested on: OVCAR-5 ovarian
[21] = tested on: SW-620 colon
[22] = tested on: PC-3 prostate
[23] = tested on: NCI-H226 lung
[24] = tested on: MOLT-4 leukemia
[25] = tested on: COLO 205 colon
[26] = tested on: HCC-2998 colon
[27] = tested on: LOX IMVI melanoma
[28] = tested on: SK-OV-3 ovarian
[29] = tested on: HOP-62 NSCLC
[30] = tested on: RPMI-8226 leukemia
[31] = tested on: DU-145 prostate
[32] = tested on: BT-549 breast
[33] = tested on: SR leukemia
[34] = tested on: SNB-75 CNS
[35] = tested on: U251 CNS
[36] = tested on: A498 renal
[37] = tested on: MDA-N
[38] = tested on: SN12C renal
[39] = tested on: SK-MEL-5 melanoma
[40] = tested on: UO-31 renal
[41] = tested on: 786-0 renal
[42] = tested on: A549 NSCLC
[43] = tested on: EKVX NSCLC
[44] = tested on: ACHN renal
[45] = tested on: KM12 colon
[46] = tested on: UACC-257 melanoma
[47] = tested on: T-47D breast
[48] = tested on: NCI-H23 lung
[49] = tested on: HCT-15 colon
[50] = tested on: MCF7 breast

Measured: TGI

CCOC(=O)c1c(O)cc(=O)[nH]c1N1CCOCC1
> 100 µM: all assays above
